Four molecules from publication PMC6008489 (Bioorganic & Medicinal Chemistry, 2018) can be followed below.

Like-named read-outs stand apart in the source and are kept apart here.

The target in assay [1] is T1, LCK (Homo sapiens, UniProt P06239).
T1 construct: purchased Perkin Elmer (ProfilerPro assay kit 1)
The assay is described as follows: 26-kinase panel mobility shift assay, single concentration. It counts as biochemical. To be noted: read-out: % Inhibition LCK.
Description: (§1) A mobility shift assay to determine kinase inhibition was carried out using a
(§2) modified version of the ProfilerPro assay kit 1 (Perkin Elmer, Coventry, UK)
(§3) including MPS1 and Aurora B. Each kit contained an enzyme plate, a substrate
(§4) plate, reconstitution buffer, 1 M DTT, protease inhibitor cocktail and termination
(§5) buffer. Test compounds were added as a solution in DMSO.
(§6) peptide phosphorylation assay was carried out as per the manufacturer’s
(§7) instructions. The electrophoretic separation and analysis of the phosphorylated
(§8) and non-phosphorylated peptides was carried out on a 4-sipper chip using a
(§9) LabChip EZReader II (Perkin Elmer). Results were expressed as % inhibition of
(§10) peptide phosphorylation relative to control wells for 0 % (no test compound) and
(§11) 100 % (no ATP) inhibition. The percentage inhibition was calculated using the
(§12) % Inhibition = [1 - (% Conversion Sample / % Conversion 0% Inhibition Control)] x 100

Assay [2] has as its target T2, MSK1 (Homo sapiens, UniProt O75582).
T2 construct: purchased Perkin Elmer (ProfilerPro assay kit 1)
The description is as above. It counts as biochemical. Conditions: read-out: % Inhibition MSK1.
Description: (§13) In order to test the biochemical activity of our fragment library, a panel of 26 structurally diverse protein kinases was used.
Mobility Shift Assay Protocol
(§14) Screening of 26 kinases using a mobility shift assay
as §1, §2, §3, §4, §5
final concentration. […] The
as §6, §7, §8, §9, §10, §11, §12

Assay [3] has as its target T3, SRC (Homo sapiens, UniProt P12931).
T3 construct: purchased Perkin Elmer (ProfilerPro assay kit 1)
The assay is described as above. Conditions: read-out: % Inhibition SRC. It counts as biochemical.
Description: as §13, §14, §1, §2, §3, §4, §5, §6, §7, §8, §9, §10, §11, §12

In assay [4] the target is T4, Erk1 (Homo sapiens, UniProt P27361).
T4 construct: purchased Perkin Elmer (ProfilerPro assay kit 1)
The description is as above. It counts as biochemical. Conditions: read-out: % Inhibition Erk1.
Description: as §1, §2, §3, §4, §5, §6, §7, §8, §9, §10, §11, §12

Assay [5] addresses T5, Erk2 (Homo sapiens, UniProt P28482).
T5 construct: purchased Perkin Elmer (ProfilerPro assay kit 1)
The assay is described as above. It counts as biochemical. To be noted: read-out: % Inhibition Erk2.
Description: as §1, §2, §3, §4, §5, §6, §7, §8, §9, §10, §11, §12

Assay [6] has as its target T6, PRAK (Homo sapiens, UniProt Q8IW41).
T6 construct: purchased Perkin Elmer (ProfilerPro assay kit 1)
T6 sequence (Q8IW41 1-473): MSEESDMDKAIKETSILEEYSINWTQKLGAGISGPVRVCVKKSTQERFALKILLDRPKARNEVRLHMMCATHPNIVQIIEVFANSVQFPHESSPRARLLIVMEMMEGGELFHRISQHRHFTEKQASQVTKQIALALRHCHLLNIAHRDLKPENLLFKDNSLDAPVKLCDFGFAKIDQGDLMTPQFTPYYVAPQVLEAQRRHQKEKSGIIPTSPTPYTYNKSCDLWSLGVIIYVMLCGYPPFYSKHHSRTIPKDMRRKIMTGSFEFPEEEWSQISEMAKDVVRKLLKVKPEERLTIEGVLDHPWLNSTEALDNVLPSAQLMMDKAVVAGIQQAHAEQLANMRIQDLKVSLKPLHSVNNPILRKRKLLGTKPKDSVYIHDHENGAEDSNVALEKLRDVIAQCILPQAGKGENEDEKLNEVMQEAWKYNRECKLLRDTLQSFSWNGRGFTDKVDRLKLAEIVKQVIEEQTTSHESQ
Described as above. It is filed as biochemical. To be noted: read-out: % Inhibition PRAK.
Description: as §1, §2, §3, §4, §5
final concentration. […] The
as §6, §7, §8, §9, §10, §11, §12

Assay [7] concerns the target T7, p38 (Homo sapiens, UniProt Q16539).
T7 construct: purchased Perkin Elmer (ProfilerPro assay kit 1)
Described as above. To be noted: read-out: % Inhibition p38. It counts as biochemical.
Description: as §13
Mobility Shift Assay Protocol
as §14, §1, §2, §3, §4, §5
final concentration. […] The
as §6, §7, §8, §9, §10, §11, §12

The target in assay [8] is T8, CHK2 (Homo sapiens, UniProt O96017).
T8 construct: purchased Perkin Elmer (ProfilerPro assay kit 1)
The description is as above. It is filed as biochemical. Conditions: read-out: % Inhibition CHK2.
Description: as §1, §2, §3, §4, §5, §6, §7, §8, §9, §10, §11, §12

Assay [9] has as its target T9, ABL (Homo sapiens, UniProt P00519).
T9 construct: purchased Perkin Elmer ProfilerPro assay kit 1
Described as above. Conditions: read-out: % Inhibition ABL. It is filed as biochemical.
Description: Mobility Shift Assay Protocol
as §14, §1, §2, §3, §4, §5, §6, §7, §8, §9, §10, §11, §12

Assay [10] addresses T10, CK1d (Homo sapiens, UniProt P48730).
T10 construct: purchased Perkin Elmer (ProfilerPro assay kit 1)
The description is as above. It counts as biochemical. Conditions: read-out: % Inhibition CK1d.
Description: as §1, §2, §3, §4, §5, §6, §7, §8, §9, §10, §11, §12

Assay [11] deals with T11, MET (Homo sapiens, UniProt P08581).
T11 construct: purchased Perkin Elmer (ProfilerPro assay kit 1)
The assay is described as above. It is filed as biochemical. To be noted: read-out: % Inhibition MET.
Description: as §13
Mobility Shift Assay Protocol
as §14, §1, §2, §3, §4, §5
final concentration. […] The
as §6, §7, §8, §9, §10, §11, §12

Assay [12] addresses T12, PKA (Homo sapiens, UniProt P17612).
T12 construct: purchased Perkin Elmer (ProfilerPro assay kit 1)
The description is as above. It is filed as biochemical. To be noted: read-out: % Inhibition PKA.
Description: as §13
Mobility Shift Assay Protocol
as §14, §1, §2, §3, §4, §5
final concentration. […] The
as §6, §7, §8, §9, §10, §11, §12

Assay [13] deals with T13, MPS1 (Homo sapiens, UniProt P33981).
T13 sequence (P33981 1-857): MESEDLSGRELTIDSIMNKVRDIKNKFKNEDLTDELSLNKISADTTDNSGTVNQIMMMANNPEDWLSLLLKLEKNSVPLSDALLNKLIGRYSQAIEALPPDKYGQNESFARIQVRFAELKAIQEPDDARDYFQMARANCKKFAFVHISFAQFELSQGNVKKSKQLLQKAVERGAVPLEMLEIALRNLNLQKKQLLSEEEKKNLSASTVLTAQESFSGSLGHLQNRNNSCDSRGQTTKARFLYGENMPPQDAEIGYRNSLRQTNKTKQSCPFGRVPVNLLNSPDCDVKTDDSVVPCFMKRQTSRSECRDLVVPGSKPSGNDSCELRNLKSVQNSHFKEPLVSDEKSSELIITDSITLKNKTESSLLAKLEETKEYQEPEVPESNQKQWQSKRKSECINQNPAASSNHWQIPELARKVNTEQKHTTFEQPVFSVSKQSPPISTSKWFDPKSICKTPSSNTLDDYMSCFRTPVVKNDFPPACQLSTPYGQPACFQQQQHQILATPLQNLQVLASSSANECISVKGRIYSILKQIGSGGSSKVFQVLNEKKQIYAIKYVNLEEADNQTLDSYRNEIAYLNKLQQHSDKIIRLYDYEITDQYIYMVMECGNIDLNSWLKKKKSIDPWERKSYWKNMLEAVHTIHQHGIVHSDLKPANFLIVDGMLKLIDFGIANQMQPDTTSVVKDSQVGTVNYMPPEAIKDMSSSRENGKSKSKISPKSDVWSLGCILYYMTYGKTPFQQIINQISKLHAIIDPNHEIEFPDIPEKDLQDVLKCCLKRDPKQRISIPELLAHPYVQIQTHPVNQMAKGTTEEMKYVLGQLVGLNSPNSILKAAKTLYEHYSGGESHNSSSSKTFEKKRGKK
The assay is described as follows: biochemical. Conditions: read-out: % Inhibition MPS1.
Description: as §13, §14, §1, §2, §3, §4, §5, §6, §7, §8, §9, §10, §11, §12

Assay [14] addresses T14, MAPKAPK2 (Homo sapiens, UniProt P49137).
T14 construct: purchased Perkin Elmer (ProfilerPro assay kit 1)
The assay is described as follows: 26-kinase panel mobility shift assay, single concentration. It counts as biochemical. Conditions: read-out: % Inhibition MAPKAPK2.
Description: as §1, §2, §3, §4, §5, §6, §7, §8, §9, §10, §11, §12

In assay [15] the target is T15, GSK3b (Homo sapiens, UniProt P49841).
T15 construct: purchased Perkin Elmer (ProfilerPro assay kit 1)
The assay is described as above. It is filed as biochemical. To be noted: read-out: % Inhibition GSK3.
Description: as §1, §2, §3, §4, §5, §6, §7, §8, §9, §10, §11, §12

For assay [16], the target named is T16, CHK1 (Homo sapiens, UniProt O14757).
T16 construct: purchased Perkin Elmer ProfilerPro assay kit 1
T16 sequence (O14757 1-476): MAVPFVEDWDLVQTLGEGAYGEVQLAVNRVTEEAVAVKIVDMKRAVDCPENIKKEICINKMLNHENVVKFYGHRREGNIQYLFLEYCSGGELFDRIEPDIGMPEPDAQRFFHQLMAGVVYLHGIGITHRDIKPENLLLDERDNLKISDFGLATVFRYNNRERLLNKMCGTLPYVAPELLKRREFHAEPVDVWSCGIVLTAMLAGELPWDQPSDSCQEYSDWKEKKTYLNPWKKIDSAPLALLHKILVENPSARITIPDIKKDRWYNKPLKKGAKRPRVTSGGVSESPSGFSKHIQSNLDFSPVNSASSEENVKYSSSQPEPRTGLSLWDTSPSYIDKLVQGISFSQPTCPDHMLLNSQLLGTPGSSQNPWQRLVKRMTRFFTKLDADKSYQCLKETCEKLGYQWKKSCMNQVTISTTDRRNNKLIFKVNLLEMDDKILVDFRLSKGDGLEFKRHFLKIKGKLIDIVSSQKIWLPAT
The assay is described as above. It is filed as biochemical. To be noted: read-out: % Inhibition CHK1.
Description: as §1, §2, §3, §4, §5, §6, §7, §8, §9, §10, §11, §12

The target in assay [17] is T17, INSR (Homo sapiens, UniProt P06213).
T17 construct: purchased Perkin Elmer (ProfilerPro assay kit 1)
The description is as above. Conditions: read-out: % Inhibition INSR. It is filed as biochemical.
Description: as §13, §14, §1, §2, §3, §4, §5, §6, §7, §8, §9, §10, §11, §12

T2 sequence (O75582 whole entry): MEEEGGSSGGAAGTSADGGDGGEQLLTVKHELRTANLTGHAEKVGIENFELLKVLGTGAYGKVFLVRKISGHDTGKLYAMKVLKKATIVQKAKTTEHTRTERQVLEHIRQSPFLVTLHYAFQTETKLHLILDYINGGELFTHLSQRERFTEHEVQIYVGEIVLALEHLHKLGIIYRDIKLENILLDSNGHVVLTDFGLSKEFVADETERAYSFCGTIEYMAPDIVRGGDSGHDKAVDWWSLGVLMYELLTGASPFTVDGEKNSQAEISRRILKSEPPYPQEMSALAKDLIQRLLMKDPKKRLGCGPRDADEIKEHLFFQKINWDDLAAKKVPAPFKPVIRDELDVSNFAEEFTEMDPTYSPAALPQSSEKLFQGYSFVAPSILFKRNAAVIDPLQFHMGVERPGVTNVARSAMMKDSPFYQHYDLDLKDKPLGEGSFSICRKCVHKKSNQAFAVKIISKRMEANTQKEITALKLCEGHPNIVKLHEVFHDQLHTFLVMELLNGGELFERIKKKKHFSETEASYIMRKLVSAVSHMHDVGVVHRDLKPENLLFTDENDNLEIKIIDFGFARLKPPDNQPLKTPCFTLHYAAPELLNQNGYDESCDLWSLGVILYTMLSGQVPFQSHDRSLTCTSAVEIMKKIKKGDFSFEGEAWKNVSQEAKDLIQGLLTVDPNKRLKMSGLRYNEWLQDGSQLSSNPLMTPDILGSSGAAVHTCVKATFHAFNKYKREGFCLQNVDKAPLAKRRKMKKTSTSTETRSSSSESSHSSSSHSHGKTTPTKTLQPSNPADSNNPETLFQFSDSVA
T15 sequence (P49841 whole entry): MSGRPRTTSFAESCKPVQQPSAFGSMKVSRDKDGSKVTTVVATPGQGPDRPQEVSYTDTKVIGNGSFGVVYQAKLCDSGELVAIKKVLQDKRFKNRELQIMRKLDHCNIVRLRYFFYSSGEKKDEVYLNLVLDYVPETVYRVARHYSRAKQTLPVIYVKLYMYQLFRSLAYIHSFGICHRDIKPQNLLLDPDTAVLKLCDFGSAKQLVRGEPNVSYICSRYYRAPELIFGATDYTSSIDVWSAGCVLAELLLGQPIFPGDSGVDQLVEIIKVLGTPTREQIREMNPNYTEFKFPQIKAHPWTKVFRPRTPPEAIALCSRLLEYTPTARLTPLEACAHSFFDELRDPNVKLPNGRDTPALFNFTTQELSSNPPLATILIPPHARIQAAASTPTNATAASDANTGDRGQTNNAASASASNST
T1 sequence (P06239 whole entry): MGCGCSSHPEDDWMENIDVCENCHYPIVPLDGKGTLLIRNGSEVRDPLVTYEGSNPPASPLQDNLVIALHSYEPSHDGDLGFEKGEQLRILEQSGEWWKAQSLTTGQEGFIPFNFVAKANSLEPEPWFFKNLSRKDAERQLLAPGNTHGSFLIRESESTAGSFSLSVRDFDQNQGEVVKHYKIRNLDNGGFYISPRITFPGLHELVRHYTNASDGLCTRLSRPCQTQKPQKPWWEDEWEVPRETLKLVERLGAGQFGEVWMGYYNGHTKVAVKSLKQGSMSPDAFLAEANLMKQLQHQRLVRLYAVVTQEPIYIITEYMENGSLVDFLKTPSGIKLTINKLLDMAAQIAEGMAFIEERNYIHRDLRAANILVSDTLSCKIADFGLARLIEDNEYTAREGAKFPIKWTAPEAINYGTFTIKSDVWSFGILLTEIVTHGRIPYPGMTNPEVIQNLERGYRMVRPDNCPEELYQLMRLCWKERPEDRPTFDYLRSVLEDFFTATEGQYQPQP
T10 sequence (P48730 whole entry): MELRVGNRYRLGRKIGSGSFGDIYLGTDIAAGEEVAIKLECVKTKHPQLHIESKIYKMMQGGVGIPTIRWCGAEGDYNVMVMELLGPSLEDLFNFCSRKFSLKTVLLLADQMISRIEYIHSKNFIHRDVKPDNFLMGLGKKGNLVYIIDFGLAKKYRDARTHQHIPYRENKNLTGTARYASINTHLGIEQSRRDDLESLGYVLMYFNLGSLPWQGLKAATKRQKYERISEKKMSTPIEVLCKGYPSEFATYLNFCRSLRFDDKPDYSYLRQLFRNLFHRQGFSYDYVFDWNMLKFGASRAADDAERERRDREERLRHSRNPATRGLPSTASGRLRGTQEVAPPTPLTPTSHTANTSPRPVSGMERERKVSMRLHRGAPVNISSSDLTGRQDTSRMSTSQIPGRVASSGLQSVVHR
T5 sequence (P28482 whole entry): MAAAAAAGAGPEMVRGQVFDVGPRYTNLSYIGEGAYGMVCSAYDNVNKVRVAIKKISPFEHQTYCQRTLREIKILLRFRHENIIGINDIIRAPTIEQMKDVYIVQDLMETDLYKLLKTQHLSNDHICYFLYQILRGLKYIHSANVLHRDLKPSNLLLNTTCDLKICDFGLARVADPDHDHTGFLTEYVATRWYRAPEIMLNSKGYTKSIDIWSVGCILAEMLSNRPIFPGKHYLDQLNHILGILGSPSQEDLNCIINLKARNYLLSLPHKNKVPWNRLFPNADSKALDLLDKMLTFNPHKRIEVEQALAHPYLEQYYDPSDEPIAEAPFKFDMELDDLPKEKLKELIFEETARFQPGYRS
T9 sequence (P00519 whole entry): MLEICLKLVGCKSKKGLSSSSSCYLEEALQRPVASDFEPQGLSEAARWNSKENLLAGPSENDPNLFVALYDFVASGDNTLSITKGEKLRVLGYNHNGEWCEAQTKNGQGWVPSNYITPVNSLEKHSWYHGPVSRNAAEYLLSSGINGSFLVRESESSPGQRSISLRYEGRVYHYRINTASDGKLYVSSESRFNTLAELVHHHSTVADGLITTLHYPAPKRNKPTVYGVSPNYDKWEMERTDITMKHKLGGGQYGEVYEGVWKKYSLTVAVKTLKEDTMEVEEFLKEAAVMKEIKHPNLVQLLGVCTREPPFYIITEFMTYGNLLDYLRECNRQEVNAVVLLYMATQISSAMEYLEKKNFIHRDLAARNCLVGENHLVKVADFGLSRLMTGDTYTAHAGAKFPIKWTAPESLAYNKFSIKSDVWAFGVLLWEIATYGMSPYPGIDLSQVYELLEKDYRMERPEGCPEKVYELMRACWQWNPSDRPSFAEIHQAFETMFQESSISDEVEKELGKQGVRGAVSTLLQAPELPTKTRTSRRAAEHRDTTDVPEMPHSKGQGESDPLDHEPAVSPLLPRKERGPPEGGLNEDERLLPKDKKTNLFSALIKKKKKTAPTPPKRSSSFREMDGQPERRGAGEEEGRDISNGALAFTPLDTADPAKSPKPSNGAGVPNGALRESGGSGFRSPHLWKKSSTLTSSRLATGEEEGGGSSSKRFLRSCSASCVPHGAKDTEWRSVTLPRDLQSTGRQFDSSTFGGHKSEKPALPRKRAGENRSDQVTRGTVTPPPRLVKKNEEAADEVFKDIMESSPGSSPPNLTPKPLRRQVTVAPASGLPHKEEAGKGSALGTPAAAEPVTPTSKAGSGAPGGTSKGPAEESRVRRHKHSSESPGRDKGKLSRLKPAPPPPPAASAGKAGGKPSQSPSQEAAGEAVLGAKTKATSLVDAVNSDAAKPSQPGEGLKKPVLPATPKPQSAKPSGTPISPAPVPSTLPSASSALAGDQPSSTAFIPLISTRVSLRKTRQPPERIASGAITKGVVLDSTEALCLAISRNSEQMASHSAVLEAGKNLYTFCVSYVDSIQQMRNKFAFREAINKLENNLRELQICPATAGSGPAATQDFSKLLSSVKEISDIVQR
T11 sequence (P08581 25-1390): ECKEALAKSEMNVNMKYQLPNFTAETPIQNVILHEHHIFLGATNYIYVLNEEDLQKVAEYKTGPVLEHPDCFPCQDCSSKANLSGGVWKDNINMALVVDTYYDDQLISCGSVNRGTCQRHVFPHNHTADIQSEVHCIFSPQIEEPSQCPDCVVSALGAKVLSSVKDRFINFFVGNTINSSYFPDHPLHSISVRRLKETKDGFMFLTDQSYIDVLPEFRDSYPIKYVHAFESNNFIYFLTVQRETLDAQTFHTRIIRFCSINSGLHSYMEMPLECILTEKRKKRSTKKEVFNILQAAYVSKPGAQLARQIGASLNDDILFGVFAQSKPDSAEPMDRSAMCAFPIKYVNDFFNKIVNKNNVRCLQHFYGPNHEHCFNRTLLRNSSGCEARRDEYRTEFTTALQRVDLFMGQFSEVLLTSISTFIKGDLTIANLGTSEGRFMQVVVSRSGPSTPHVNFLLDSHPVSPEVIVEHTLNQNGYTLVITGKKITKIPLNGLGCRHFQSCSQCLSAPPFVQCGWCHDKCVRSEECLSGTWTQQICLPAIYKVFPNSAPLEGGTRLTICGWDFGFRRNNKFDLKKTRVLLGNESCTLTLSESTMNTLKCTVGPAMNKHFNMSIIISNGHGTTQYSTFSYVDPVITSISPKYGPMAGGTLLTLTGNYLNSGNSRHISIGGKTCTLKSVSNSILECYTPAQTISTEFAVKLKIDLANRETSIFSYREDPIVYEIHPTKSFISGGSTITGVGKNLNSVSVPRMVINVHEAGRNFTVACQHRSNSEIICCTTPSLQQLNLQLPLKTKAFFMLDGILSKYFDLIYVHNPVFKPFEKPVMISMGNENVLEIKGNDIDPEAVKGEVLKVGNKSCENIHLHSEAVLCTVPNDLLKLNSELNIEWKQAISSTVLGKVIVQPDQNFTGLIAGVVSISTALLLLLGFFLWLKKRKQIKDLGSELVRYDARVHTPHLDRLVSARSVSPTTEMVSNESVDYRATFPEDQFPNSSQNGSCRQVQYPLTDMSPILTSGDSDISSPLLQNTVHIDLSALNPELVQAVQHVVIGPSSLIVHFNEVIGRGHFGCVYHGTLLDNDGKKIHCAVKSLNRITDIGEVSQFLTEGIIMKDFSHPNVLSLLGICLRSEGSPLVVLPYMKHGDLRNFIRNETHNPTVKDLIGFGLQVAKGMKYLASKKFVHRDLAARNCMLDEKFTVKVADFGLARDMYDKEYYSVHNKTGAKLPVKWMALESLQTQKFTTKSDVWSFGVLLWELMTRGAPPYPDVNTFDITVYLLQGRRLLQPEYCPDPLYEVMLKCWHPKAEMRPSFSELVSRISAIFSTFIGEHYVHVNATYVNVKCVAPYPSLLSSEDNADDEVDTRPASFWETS

On to `Cc1nc(O)c(N)cc1-c1ccncc1` [Compound 15, 3-Amino-6-methyl-5-(pyridin-4-yl)pyridin-2-one], for which the inhibition at 100 µM in assay [1] was 4%; in [2] it was 14%; in assay [3], 21%; in assay [4], 11%; in assay [5], 11%; in assay [6], 24%. Further, the inhibition at 100 µM came out at 8% in [7]; 42% in [8]; 5% in assay [9]; 33% in assay [10]; 14% in [11]; 0% in assay [12]. For the same molecule, the inhibition at 100 µM in [13] (compound at 100 µM) was found to be 20%; in assay [14], 33%; in assay [15] it was 39%; in assay [16], 4%; in assay [17], 23%.

On to `O=C(Nc1cc(-c2ccncc2)c[nH]c1=O)c1ccccc1` [Compound 16, N-(2-Oxo-5-(pyridin-4-yl)-1,2-dihydropyridin-3-yl)benzamide], for which the inhibition at 30 µM came to 45% in [1]; 1% in [2]; 60% in [3]; 12% in assay [4]; 5% in [5]; 1% in assay [6]. The inhibition at 30 µM in assay [7] came to 4%; in assay [8] it was 29%; in assay [9] it was 55%; in assay [10], 79%; in [11] it was 9%; in [12] it was 0%. Besides, the inhibition at 30 µM in assay [13] (compound at 30 µM) came to 62%; in [14], 29%; in assay [15], 92%; in [16], 24%; in assay [17], 13%.

Take `CN1CCN(c2ccc(C(=O)Nc3cc(-c4ccncc4)c[nH]c3=O)cc2)CC1` [Compound 22]: the inhibition at 30 µM in [1] was 97%; in [2] it was 8%; in [3] it was 98%; in [4], 0%; in assay [5], 1%; in assay [6], 10%. The inhibition at 30 µM was found to be 6% in assay [7]; 33% in assay [8]; 96% in [9]; 31% in assay [10]; 24% in assay [11]; 0% in assay [12]. The inhibition at 30 µM in assay [13] was 88%; in assay [14], 12%; in assay [15] it was 94%; in assay [16], 84%; in assay [17] it was 30%.

For the molecule `O=C(Nc1cc(-c2ccnc(NC3CC3)n2)c[nH]c1=O)c1ccccc1` [Compound 24], the inhibition at 30 µM in assay [1] was 75%; in assay [2], 83%; in assay [3], 99%; in assay [4], 33%; in assay [5] it was 37%; in assay [6], 71%. Besides, the inhibition at 30 µM was found to be 36% in assay [7]; 71% in [8]; 88% in assay [9]; 78% in assay [10]; 65% in assay [11]; 75% in assay [12]. The inhibition at 30 µM in assay [13] (compound at 30 µM) was 76%; in [14], 96%; in assay [15], 99%; in [16], 0%; in assay [17], 27%.

Usually inhibition stands for the share of the control response that was lost under treatment.
